Source: patent US20140271680A1, “METHODS AND PHARMACEUTICAL COMPOSITIONS FOR TREATMENT OF PULMONARY HYPERTENSION” (UNIVERSITE PARIS-EST CRETEIL VAL DE MARNE, priority 2011, published 2014)

Assays:
[1] = system: human pulmonary-artery smooth muscle cells (PA-SMCs); experiment: CCL5-stimulated proliferation of human pulmonary-artery smooth muscle cells (MTT assay); assay type: cell-based; conditions: 48 h with CCL5 and Maraviroc, FIG. 4
Description: The effects of Maraviroc on cell proliferation was investigated in primary cultures of human pulmonary-artery smooth muscle cells (PA-SMCs) collected from lung tissue samples of patients undergoing lung resection surgery. Cell proliferation was assessed by using the tetrazolium salt (MTT) assay (Sigma, Lyon, France) during conditions of stimulation with the CCR5 ligand CCL5. Human PA-SMCs were seeded onto 24-well for 48 h. PA-SMCs were synchronized for 48 h in media without serum prior cell proliferation stimulation in presence of CCL5 or CCL5 and Maraviroc. 48 hours after, MTT (100 μg/mL) was added and incubated for 4 h. The media was removed and crystals formed were dissolved in […] of dimethylsulfoxide (DMSO, Sigma) and the mixture was shaken for a few minutes to achieve complete dissolution. Aliquots (200 μL) of the resulting solutions were transferred to 96-well plates and absorbance was recorded at 520 nm using the Microplate Spectrophotometer System.

wild-type (WT) mice = experiment: hypoxic pulmonary hypertension in wild-type mice (chronic hypoxia 9% O2); assay type: in vivo; conditions: Maraviroc 200 mg/kg/day
[2] = system: CCR5 knock-in (KICCR5) mice; experiment: hypoxic pulmonary hypertension in CCR5 knock-in mice (chronic hypoxia 9% O2); assay type: in vivo; conditions: Maraviroc 200 mg/kg/day
Excerpt: To assess the inhibitory effects of the CCR5 antagonist Maraviroc on development of pulmonary hypertension in mice, the inventors used CCR5 knock-in mice in which the murine CCR5 gene was replaced by the human CCR5 gene. CCR5 knock-in mice were used in these experiments because Maraviroc binds to the human CCR5 but not to the murine CCR5 protein.
Male mice (12 months old), were exposed to chronic hypoxia (9% O2) in a ventilated chamber (Biospherix, New York, N.Y.). Mice were anesthetized with ketamine (60 mg/Kg) and xylazine (10 mg/Kg) intraperitoneally. A 26-gauge needle connected to a pressure transducer was inserted into the right ventricle, and right ventricular systolic pressure (RVSP) was recorded. After the assessment of hemodynamic parameters, all mice were sacrificed by cardiac puncture and exsanguinations. The heart was dissected out and weighed for calculation of the Fulton index (ratio of right ventricular free wall weight over the sum of the septum plus left ventricular free wall weights: RV/LV+S). The left lung was inflated and fixed with formalin buffer for assessments of pulmonary vessel muscularization and of PA-SMC proliferation using Ki67 immunostaining

Cc1nnc(C(C)C)n1[C@@H]1C[C@H]2CC[C@@H](C1)N2CC[C@H](NC(=O)C1CCC(F)(F)CC1)c1ccccc1 [Maraviroc, 4,4-difluoro-N-{(1S)-3-[3-(3-isopropyl-5-methyl-4H-1,2,4-triazol-4-yl)-8-azabicyclo[3.2.1]oct-8-yl]-1-phenylpropyl}cyclohexanecarboxamide]
Proliferation of human pulmonary artery smooth muscle cells stimulated by the CCR5 ligand CCL5 [1]: significantly reduced
Right ventricular systolic pressure (RVSP) (wild-type (WT) mice; FIG. 3A): not in WT mice
proliferative cells detected by ki67 immunostaining (wild-type (WT) mice; FIG. 3D): not in WT mice
Right ventricular systolic pressure (RVSP) ([2]; FIG. 3A): reduction
Fulton index ([2]; FIG. 3B): reduction
% of muscularized vessels ([2]; FIG. 3C): reduction
proliferative cells detected by ki67 immunostaining ([2]; FIG. 3D): reduction
